Article PMC3386426 (Journal of Medicinal Chemistry, 2012)
Read-outs that look alike come from different tables or passages of the source.

Experiments:
[1] = tested on: L1210 murine leukemia cell line; conditions: natural enantiomer; cited from earlier work
[2] = tested on: L1210 murine leukemia cell line; test: cell growth inhibition in a cytotoxic assay with L1210; format: cell-based
[3] = tested on: L1210 murine leukemia cells; test: in vivo antitumor model, L1210 cells implanted ip into mice
[4] = tested on: L1210 murine leukemia cells; conditions: previously established; cited from earlier work
[5] = human plasma
[6] = chemical reactivity/stability under acidic, basic and nucleophilic conditions; format: physicochemical
DNA = DNA alkylation in cell-free systems; format: biochemical

For `CC(C)(C)OC(=O)N1C[C@H]2C[C@@]23C1=CC(=O)c1ccccc13` [N-Boc-CBI], the IC50 [1] is listed as 80 nM.
For `O=C(Nc1ccc2[nH]c(C(=O)N3C[C@H](CCl)c4c3cc(O)c3ccccc43)cc2c1)c1cc2ccccc2[nH]1` [Compound 4, seco-CBI-indole2], the IC50 ([2]; Mus musculus, L1210, L1210 cell line) was 0.03 nM, the “T/C (percent survival)” value ([3]; 60 μg/kg ip on days 1, 5, 9) was 197 and the “long term (250 days) survivors” value ([3]; 60 μg/kg ip on days 1, 5, 9) was 1/10. The “toxicity (premature death of the animals)” value ([3]; doses of 100–500 μg/kg ip on days 1, 5, 9) was “toxic” and the optimal dose range [4] was 0.06 to 0.1 mg/kg.
With `O=C1Nc2cccc3c4c(cc(c23)O1)N(C(=O)c1cc2cc(NC(=O)c3cc5ccccc5[nH]3)ccc2[nH]1)CC4CCl` (centres unmarked) [Compound 6, N-(2-(10-(Chloromethyl)-5-oxo-5,8,9,10-tetrahydro-4H-pyrrolo[3',2':5,6]naphtho[1,8-de][1,3]oxazine-8-carbonyl)-1H-indol-5-yl)-1H-indole-2-carboxamide] the “times more potent than its N-Boc precursor 16” value ([2]; L1210, relative to 16) was 100 to 1000 times, the free drug release [5] was 5% and the “stability under acidic conditions” value ([6]; 1:1 TFA:CH2Cl2, 4 N HCl in EtOAc, up to 72 h at 23 °C) was “stable”. For the same molecule, the DNA alkylation (DNA) was “incapable of alkylating DNA”.
For `CC(C)(C)OC(=O)N1C[C@@H](CCl)c2c1cc1c3c(cccc23)NC(=O)O1` [Compound 16, tert-Butyl 10-(Chloromethyl)-5-oxo-9,10-dihydro-4H-pyrrolo[3',2':5,6]naphtho[1,8-de][1,3]oxazine-8(5H)-carboxylate], the “fold less active than N-Boc-CBI” value ([2]; L1210, relative to N-Boc-CBI) was 50–100 fold, the “stability of cyclic carbamate to hydrolysis under acidic conditions” value ([6]; 1:1 TFA:CH2Cl2, 4 N HCl in EtOAc, 48 h at 23 °C) was “stable” and the “stability to nucleophiles BnSH and BnOH” value ([6]; 100 equiv in MeOH and THF at 23 °C for 48 h) was “completely stable”. For the same molecule, the “stability to BnNH2 in MeOH” value ([6]; BnNH2 (100 equiv) in MeOH, 24 h) was “rapidly cleaved”, the “stability to BnNH2 in THF” value ([6]; BnNH2 in THF) was “stable” and the “hydrolysis of cyclic carbamate with NaHCO3” value ([6]; NaHCO3 in protic solvents) was “slowly hydrolyzed”. The “stability to organic bases” value ([6]; organic bases in aprotic solvents) was “stable”.
With `O=C1Nc2cccc3c4c(cc(c23)O1)N(C(=O)c1cc2cc(NC(=O)c3cc5ccccc5[nH]3)ccc2[nH]1)CC4CCl` (single isomer, unassigned; (+)) [(+)-6, N-(2-(10-(Chloromethyl)-5-oxo-5,8,9,10-tetrahydro-4H-pyrrolo[3',2':5,6]naphtho[1,8-de][1,3]oxazine-8-carbonyl)-1H-indol-5-yl)-1H-indole-2-carboxamide] the “long term cures (>250 days)” value ([3]; 9000 μg/kg ip on days 1, 5, 9) was 5/10 and the “antitumor activity over dose range” value ([3]; 300 to 9000 μg/kg ip on days 1, 5, 9 (30-fold range)) was “productive antitumor activity over the entire and much larger dose range examined”.
In the case of `Nc1cccc2c1C(=O)C=C1N(C(=O)c3cc4cc(NC(=O)c5cc6ccccc6[nH]5)ccc4[nH]3)CC3CC123` (racemic) [(±)-20, N-(2-(5-Amino-4-oxo-1,2,9,9a-tetrahydrocyclopropa[c]benzo[e]indole-2-carbonyl)-1H-indol-5-yl)-1H-indole-2-carboxamide], the “fold less active than 4 (active enantiomer of 20)” value ([2]; L1210, inferred for the active enantiomer from the racemate) is reported as 3–4 fold.
